Here are results for eight molecules from patent US9540345B2, “Antiviral compounds” (priority 2013, dated 2017).

As a reminder, the EC50 is the midpoint of the concentration-response curve.

For experiment [1], the system named is pseudotyped HCV GT1b particles (HCVpp). In words: microbe, parasite or virus in culture. It counts as cell-based, HCV GT1b Con1 strain. To be noted: Hepatitis C virus, GT1B, 72 h, read-out: HCVpp GT-1b (EC50, μM).
Experiment [2] has as its system pseudotyped VSV G particles (VSVpp). The experiment in a line: microbe, parasite or virus in culture. The note with it: Vesicular stomatitis virus, 72 h, read-out: VSVpp (EC50, μM). It is filed as cell-based, vesicular stomatitis virus.

Where a name gives a salt, the structure may show the parent alone. A value given as a limit tells only on which side of the number the result lay.

As for `Nc1nc(Nc2cc(Cl)c(-c3cc[nH]n3)c(Cl)c2)n[nH]1` [Compound 38, N-3-[3,5-Dichloro-4-(1H-pyrazol-3-yl)-phenyl]-1H-[1,2,4]triazole-3,5-diamine], the figures for the EC50 in experiment [1] and in experiment [2] were 3.39 µM and 35.8 µM, respectively.
For `Nc1nc(Nc2cc(Cl)c(-c3ccc(Cl)s3)c(Cl)c2)n[nH]1` [Compound 36, N-3-[3,5-Dichloro-4-(5-chloro-thiophen-2-yl)-phenyl]-1H-[1,2,4]triazole-3,5-diamine], the EC50 in experiment [1] was found to be 0.558 µM; in experiment [2], 11.9 µM.
The matching figures for `Nc1nc(Nc2cc(Cl)c(-n3ccccc3=O)c(Cl)c2)n[nH]1` [Compound 30, 1-[4-(5-Amino-1H-[1,2,4]triazol-3-ylamino)-2,6-dichloro-phenyl]-1H-pyridin-2-one]: 5.75 µM and 5.6 µM.
The matching figures for `Nc1ncc(-c2c(Cl)cc(Nc3n[nH]c(N)n3)cc2Cl)cn1` [Compound 5, N*3*-[4-(2-Amino-pyrimidin-5-yl)-3,5-dichloro-phenyl]-1H-[1,2,4]triazole-3,5-diamine]: 0.1 µM and 0.4 µM.
The matching figures for `Nc1n[nH]c(Nc2cc(F)c(-c3ccc(F)nc3)c(C(F)(F)F)c2)n1` [Compound 9, N^5-(3-Fluoro-4-(6-fluoropyridin-3-yl)-5-trifluoromethylphenyl)-1H-[1,2,4]-triazole-3,5-diamine]: 0.998 µM and 31.1 µM.
As for `COc1cc(-c2c(Cl)cc(Nc3n[nH]c(N)n3)cc2Cl)ccn1` [Compound 6, N3-(3,5-dichloro-4-(2-methoxypyridin-4-yl)phenyl)-1H-1,2,4-triazole-3,5-diamine], the EC50 was 0.33 µM in experiment [1] and at least 10 µM in experiment [2].
For `Nc1nc(Nc2cc(Cl)c(C3=NCCCN3)c(Cl)c2)n[nH]1` [Compound 31, N3-(3,5-dichloro-4-(1,4,5,6-tetrahydropyrimidin-2-yl)phenyl)-1H-1,2,4-triazole-3,5-diamine. trifluoroacetic salt] the same measures were 5.45 µM and 4.7 µM.
On to `COc1ncc(-c2c(Cl)cc(Nc3n[nH]c(N)n3)cc2Cl)cn1` [Compound 40, N-3-[3,5-Dichloro-4-(2-methoxy-pyrimidin-5-yl)-phenyl]-1H-[1,2,4]triazole-3,5-diamine], for which the 50% effective concentration (EC50) in experiment [1] came to 0.52 µM; in experiment [2], 3.3 µM.
